Experimental data published in patent publication EP1247803A2, “Indolinone compounds suitable for modulation of protein kinases” (Sugen, Inc., priority 1996, dated 1998).

Assays:
[1] = target: PDGF-R (Homo sapiens, UniProt P09619); assay: PDGF-R ELISA; type: cell-based
Source text: A PDGF-R ELISA is described in International Patent Publication No. WO 96/40116, published December 19, 1996 by Tang et al.

[2] = target: T1, FLK-1 receptor (Mus musculus, UniProt P35918); assay: FLK-1 ELISA (kinase activity of the FLK-1 receptor in FLK-1/NIH3T3 cells, VEGF stimulated); type: cell-based
T1 construct: expressed in transfected cells; host or cells: NIH3T3 C7#3
Summary of the method: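 FLK-1-expressing NIH3T3 C7#3 cells, starved overnight in 0.1% FBS medium, were treated with compounds at a 1:200 final dilution (0.5% DMSO) for 2 h at 37 °C, with VEGF stimulation. FLK-1 kinase activity was read by ELISA on anti-rabbit IgG plates using affinity-purified anti-FLK-1 antiserum.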

T1 sequence (P35918 20-1345): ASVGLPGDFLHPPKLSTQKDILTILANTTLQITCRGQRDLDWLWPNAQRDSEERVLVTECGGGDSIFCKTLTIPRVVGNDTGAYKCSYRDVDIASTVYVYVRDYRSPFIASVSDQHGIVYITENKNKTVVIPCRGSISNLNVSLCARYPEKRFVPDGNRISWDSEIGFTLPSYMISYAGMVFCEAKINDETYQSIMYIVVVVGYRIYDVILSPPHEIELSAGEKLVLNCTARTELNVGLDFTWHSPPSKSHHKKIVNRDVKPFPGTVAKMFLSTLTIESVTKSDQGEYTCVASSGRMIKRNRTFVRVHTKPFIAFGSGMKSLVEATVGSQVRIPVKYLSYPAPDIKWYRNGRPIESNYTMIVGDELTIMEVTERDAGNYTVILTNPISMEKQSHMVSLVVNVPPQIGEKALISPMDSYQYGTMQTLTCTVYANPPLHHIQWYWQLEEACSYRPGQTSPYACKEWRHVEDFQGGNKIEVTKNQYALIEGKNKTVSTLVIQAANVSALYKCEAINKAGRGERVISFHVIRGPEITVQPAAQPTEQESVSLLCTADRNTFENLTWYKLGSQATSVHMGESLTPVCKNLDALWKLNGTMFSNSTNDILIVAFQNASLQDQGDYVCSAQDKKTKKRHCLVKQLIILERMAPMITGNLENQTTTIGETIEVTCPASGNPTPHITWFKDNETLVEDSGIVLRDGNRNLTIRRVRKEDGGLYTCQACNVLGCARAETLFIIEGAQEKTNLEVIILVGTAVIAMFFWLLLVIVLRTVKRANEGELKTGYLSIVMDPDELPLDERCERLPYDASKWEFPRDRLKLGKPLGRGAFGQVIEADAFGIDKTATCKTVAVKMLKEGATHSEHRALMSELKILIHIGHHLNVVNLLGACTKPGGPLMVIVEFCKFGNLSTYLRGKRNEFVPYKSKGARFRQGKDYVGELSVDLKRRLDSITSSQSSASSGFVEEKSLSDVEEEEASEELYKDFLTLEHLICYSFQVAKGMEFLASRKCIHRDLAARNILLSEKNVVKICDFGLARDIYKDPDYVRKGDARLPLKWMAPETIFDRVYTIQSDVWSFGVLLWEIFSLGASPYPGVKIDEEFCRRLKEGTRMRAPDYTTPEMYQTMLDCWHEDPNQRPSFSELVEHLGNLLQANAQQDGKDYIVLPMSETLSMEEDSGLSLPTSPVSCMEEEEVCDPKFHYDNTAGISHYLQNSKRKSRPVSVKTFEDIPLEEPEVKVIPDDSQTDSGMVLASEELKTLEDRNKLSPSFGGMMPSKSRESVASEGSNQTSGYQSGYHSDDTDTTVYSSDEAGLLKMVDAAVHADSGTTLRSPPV
PDGF-R, sequence (P09619 33-1106, species assumed): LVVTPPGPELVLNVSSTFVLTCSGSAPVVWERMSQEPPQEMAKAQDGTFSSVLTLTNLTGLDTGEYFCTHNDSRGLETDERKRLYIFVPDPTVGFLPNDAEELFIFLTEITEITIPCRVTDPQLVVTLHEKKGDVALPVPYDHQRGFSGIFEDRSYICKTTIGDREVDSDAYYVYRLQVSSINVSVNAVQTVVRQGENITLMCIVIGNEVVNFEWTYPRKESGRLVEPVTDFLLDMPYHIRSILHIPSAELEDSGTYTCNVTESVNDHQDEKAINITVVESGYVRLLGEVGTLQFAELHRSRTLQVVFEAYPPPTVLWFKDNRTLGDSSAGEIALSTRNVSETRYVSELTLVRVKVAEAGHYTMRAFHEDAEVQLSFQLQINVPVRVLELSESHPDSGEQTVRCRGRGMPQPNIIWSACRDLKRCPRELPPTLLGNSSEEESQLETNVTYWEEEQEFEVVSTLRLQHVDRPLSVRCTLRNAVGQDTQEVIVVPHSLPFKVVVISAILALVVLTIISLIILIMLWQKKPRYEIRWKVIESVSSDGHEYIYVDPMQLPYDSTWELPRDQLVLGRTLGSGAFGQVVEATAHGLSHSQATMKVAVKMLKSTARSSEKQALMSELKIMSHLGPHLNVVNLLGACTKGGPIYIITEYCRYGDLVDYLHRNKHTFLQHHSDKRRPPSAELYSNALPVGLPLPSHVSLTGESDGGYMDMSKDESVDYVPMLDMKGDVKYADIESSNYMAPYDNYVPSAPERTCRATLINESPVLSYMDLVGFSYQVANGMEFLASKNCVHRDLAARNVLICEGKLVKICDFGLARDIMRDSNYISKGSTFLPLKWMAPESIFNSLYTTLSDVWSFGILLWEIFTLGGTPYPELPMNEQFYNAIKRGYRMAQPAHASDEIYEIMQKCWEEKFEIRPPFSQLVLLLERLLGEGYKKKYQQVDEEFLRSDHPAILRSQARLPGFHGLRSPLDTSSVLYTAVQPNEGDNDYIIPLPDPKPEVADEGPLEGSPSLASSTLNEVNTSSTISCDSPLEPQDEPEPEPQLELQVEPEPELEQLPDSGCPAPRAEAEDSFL

Structure (SMILES)	PDGF Kinase %Inhibition [1]	Fik Kinase %Inhibition [2]
CC(C)(C)c1cc(C=C2C(=O)Nc3ccc(S(=O)(=O)Nc4ccc(C(F)(F)F)cc4)cc32)c(O)c(C(C)(C)C)c1 [10723/E11]	32.5%	8.9%
O=C1Nc2ccc(S(=O)(=O)Nc3ccc(C(F)(F)F)cc3)cc2C1=Cc1cccc(Br)c1 [10723/E10]	44.3%	5.2%
CNS(=O)(=O)c1ccc2c(c1)C(=Cc1ccc(OC)cc1O)C(=O)N2 [10723/D09]	21.4%	50.4%
O=C1Nc2ccc(CCCl)cc2C1=Cc1csc([N+](=O)[O-])c1 [10722/G09]	0.9%	6.1%
CNS(=O)(=O)c1ccc2c(c1)C(=Cc1ccccc1Br)C(=O)N2 [10723/D07]	16.6%	15.8%
CC(=O)Oc1ccc(C=C2C(=O)Nc3ccc(S(=O)(=O)Nc4ccc(C(F)(F)F)cc4)cc32)cc1OC(C)=O [10723/E05]	-4.9%	8.9%
CC(=O)Oc1ccc(C=C2C(=O)Nc3ccc(Br)c(C)c32)cc1OC(C)=O [10723/C05]	22.8%	5.6%
O=C1Nc2ccc(S(=O)(=O)Nc3ccc(C(F)(F)F)cc3)cc2C1=Cc1cc(O)c(O)c(Br)c1 [10723/E04]	36.0%	30.7%
COc1ccc(C=C2C(=O)Nc3ccc(Br)c(C)c32)c(O)c1 [10723/C09]	62.3%	-22.3%
COc1cccc(C=C2C(=O)Nc3ccc(I)cc32)c1O [10723/B03]	14.5%	7.1%
O=C1Nc2ccc(CCCl)cc2C1=Cc1ccc(C(=O)O)cc1 [10722/G05]	-6.0%	10.8%
O=C1Nc2ccc(S(=O)(=O)Nc3ccc(C(F)(F)F)cc3)cc2C1=Cc1ccccc1Br [10723/E07]	14.5%	17.4%
O=C1Nc2ccc(CCCl)cc2C1=Cc1ccc([N+](=O)[O-])s1 [10722/G04]	11.7%	7.2%
CCCCN(CCCC)c1ccc(C=C2C(=O)Nc3ccc(CCCl)cc32)cc1 [10722/G10]	16.9%	-1.7%
CC(C)(C)c1cc(C=C2C(=O)Nc3ccc(I)cc32)c(O)c(C(C)(C)C)c1 [10723/B11]	22.8%	6.3%
COc1ccc(C=C2C(=O)Nc3ccc(S(=O)(=O)Nc4ccc(C(F)(F)F)cc4)cc32)c(O)c1 [10723/E09]	22.1%	7.9%
CNS(=O)(=O)c1ccc2c(c1)C(=Cc1ccc(O)c(C)c1)C(=O)N2 [10723/D06]	6.2%	17.6%
O=C1Nc2ccc(I)cc2C1=Cc1ccccc1Br [10723/B07]	24.9%	6.5%
